# Where a name gives a salt, the structure may show the parent alone. Read-outs that look alike come from different tables or passages of the source.
# What was measured:
# [1] = tested on: bFGF-induced angiogenesis in the CAM model; experiment: bFGF (FGF2)-stimulated CAM model; format: in vivo, chicken; details: bFGF/FGF2 1 ug, 30 ug injected; for inhibition in vivo at 0.03 mg: Gallus gallus, read-out: % Inhibition ± SEM
# Description: In vivo neovascularization was examined by the method previously described by Auerbach et al. (J. Dev. Biol. 41:391-394 (1974)). Ten-day old chicken embryos were purchased from Spafas, Inc. (Preston, Conn.) and were incubated at 37° C. with 55% relative humidity. In the dark, with the aid of a candling lamp, a small hole was punctured in the shell concealing the air sac with a hypodermic needle. A second hole was punctured in the shell on the broadside of the egg directly over an […] portion of the embryonic membrane, as observed during candling. An artificial air sac was created beneath the second hole by applying gentle vacuum to the first hole using a small rubber squeeze bulb. The vacuum caused the chorioallantoic membrane (CAM) to separate from the shell.
# For inducing angiogenesis, sterile filter disks were saturated with bFGF (1 μg/ml) (Life Technologies, Gaithersburg, Md.) or other pro-angiogenesis factors and control disks were saturated with PBS without Calcium and Magnesium. Control disks were saturated with PBS without Calcium and Magnesium.
# After 24-48 hr, 10-25 ul of test agent was injected intravenously or added topically into the CAM membrane. Eight-Ten eggs/treatment group were used.
# The number of vessel branch points contained in a circular region equal to the area of a filter disk was counted for each section. Percent inhibition data are expressed as the quotient of the experimental value minus the negative control value divided by the difference between the positive control value and the negative control value. One image was counted in each CAM preparation, and findings from eight CAM preparations were analyzed for each treatment condition. In addition, each experiment was performed three times. The resulting angiogenesis index is the mean ±SEM (Standard Error of Measurement) of new branch points in each set of treatment. Statistical analysis of blood vessel branching patterns are performed by 1-way analysis of variance (ANOVA) comparing experimental with corresponding control groups. Statistical significance differences are assessed at P value of <0.05.
# The CAM model protocol was modified to include stimulus with bFGF. The effect of injected OT 551 was assayed.
# TP-H was applied to the CAM model study to determine its respective anti-angiogenesis effects according to the materials and methods provided in Example 1. Basic Fibroblast Growth Factor (bFGF) was used to induce angiogenesis in the CAM model.
# Compounds were introduced via injection to the CAM model study to determine its respective anti-angiogenesis effects according to the materials and methods provided in Example 1. bFGF was used to induce angiogenesis in the CAM model.
# TNFα = experiment: Measurement of LPS Induced-TNFα in THP-1 Cells; format: cell-based, human; details: Homo sapiens
# Description: The lipid peroxidation assay method of Ohkawa, H.; Ohishi, N.; Yaki, K. Anal. Biochem. 1979, 95, 351 was used to evaluate […]. […] […] Cells were collected and spun at 1500 g for 10 minutes. Supernatant was collected and analyzed for TNFα.
# Mean Percent Inhibition of TNF-alpha by compounds of the present invention is set forth in Table B. TNF-alpha inhibition data is set forth in Table B-1. OT-551 was used in both native form and in the form of nanoparticles. […] Other nitrogenous heterocyclic species of the invention are expected to show similar improvement in efficacy when disposed in nanoparticulate form.
# [2] = tested on: Doxorubicin resistant SaOS2 cells; experiment: Cancer cell viability (MTT) in the presence or absence of doxorubicin; format: cell-based, human; details: compound 50 ug/mL, 3 days
# Lipid peroxidation = Lipid peroxidation inhibition (method of Ohkawa); format: biochemical
# [3] = THP-1, compound 10 uM, 5 ng/mL LPS, read-out: Mean Percent Inhibition of TNF-alpha using 5 ng/mL LPS
Structure (SMILES),"IC50 (TNFα; THP-1, read-out: TNFalpha IC50) [µM]",melting point,inhibition in vivo at 0.03 mg [1] [%],Branch pts ± SEM [1],inhibition at 10 µM (TNFα; [3]) [%],"Mean OD (×10^−3), MTT viability ([2]; Dox. 10^−6 M (+))","Mean OD (×10^−3), MTT viability ([2]; absence of Dox. (−))",% Lipid Peroxidation inhibition (at 1 uM) (Lipid peroxidation) [%],"Lipid Peroxidation Inhibition, % Inhibition (Lipid peroxidation; 10 uM) [%]","inhibition at 10 µM (TNFα; THP-1, read-out: Mean Percent Inhibition of TNF-alpha using 5 ng/mL LPS) [%]","IC50 (TNFα; THP-1, read-out: TNFalpha IC50 (uM)) [µM]","Lipid Peroxidation Inhibition, % Inhibition (Lipid peroxidation; 100 uM) [%]"
"COC1CC(C)(C)N(O)C(C)(C)C1.Cl [Compound 1, 1-hydroxy-4-methoxy-2,2,6,6-tetramethylpiperidine hydrogen chloride]",16.8,,89.9 ± 18,74 ± 8.6,50 ± 9,246.50 ×10^−3,524.75 ×10^−3,74.1,90.8,,,
"CC1(C)CC(N2CCOCC2)CC(C)(C)N1O.Cl [Compound 3, 4-(2,2,6,6-tetramethylpiperidin-1-hydroxy-4-yl)morpholine hydrogen chloride]",11.6,,54.7 ± 7.9,95.1 ± 5.6,60 ± 2,289.50 ×10^−3,640.25 ×10^−3,,77.8,,,
"CC1(C)CC(=O)CC(C)(C)N1O [Compound 5, 1-Hydroxy-2,2,6,6-tetramethyl-piperidin-4-one]",,,26.5 ± 7.9,86.1 ± 9.8,,245.50 ×10^−3,556.50 ×10^−3,71.0,86.3,66 ± 7,22.2,
"CC1(C)CC(O)C(C)(C)N1O (stereo not drawn) [Compound 7, 2,2,5,5-Tetramethyl-pyrrolidine-1,3-diol]",44.9,,124 ± 8.4,40.8 ± 9.7,69 ± 2,241.25 ×10^−3,540.25 ×10^−3,,82.9,,,
"CC1(C)C=C(CO)C(C)(C)N1O [Compound 8, 2,5-dihydro-2,2,5,5-tetramethyl-1-hydroxyl-1H-pyrrol-3-yl)methanol hydrogen chloride]",20.3,,88.1 ± 7.6,57.8 ± 8.02,55 ± 6,197.25 ×10^−3,392.50 ×10^−3,,,,,
"CC1(C)CC(O)C(Br)C(C)(C)N1O (stereo not drawn) [Compound 9, 3-Bromo-2,2,6,6-tetramethyl-piperidine-1,4-diol]",18.9,138.5 °C (dec.),82.2 ± 6.7,58.4 ± 6.52,48 ± 14,234.75 ×10^−3,509.00 ×10^−3,,,,,
"CC1(C)CC(NS(C)(=O)=O)CC(C)(C)N1O [Compound 10, 1-hydroxy-4-methanesulfonamido-2,2,6,6-tetramethylpiperidine]",≥ 100,,78.2 ± 9.9,60.4 ± 5.0,,250.00 ×10^−3,456.00 ×10^−3,,85.8,,,
"CC(C)(C)/[N+]([O-])=C/c1ccccc1 [Compound 17, α-phenyl-t-butyl nitrone, reference compound]",,,,,,,,,0.4,,,
"CC1(C)CC(C(N)=O)C(C)(C)N1O (stereo not drawn) [Compound 24, 1-hydroxy-2,2,5,5-tetramethylpyrrolidine-3-carboxamide]",≥ 100,,,,,362.00 ×10^−3,1166.50 ×10^−3,37.0,,,,
CC1(C)C=C(CO)CC(C)(C)N1O.Cl [Compound 25],,,,,,325.00 ×10^−3,1137.50 ×10^−3,42.0,,,,
CC1(C)CC(CO)C(C)(C)N1O.Cl (stereo not drawn) [Compound 33],,,,,,300.00 ×10^−3,1237.50 ×10^−3,54.9,,,,
"O=C(O)c1cc(C(=O)O)c2c(n1)C(=O)C(=O)c1cc(C(=O)O)[nH]c1-2 [PQQ, pyrroloquinoline quinone, reference compound]",,,,,,,,,,,,93.7

# More lines, main results first:
"IC50 (TNFα; THP-1, read-out: TNFalpha IC50) [µM]",melting point,Structure (SMILES),inhibition in vivo at 0.03 mg [1] [%],Branch pts ± SEM [1],inhibition at 10 µM (TNFα; [3]) [%],"Mean OD (×10^−3), MTT viability ([2]; Dox. 10^−6 M (+))","Mean OD (×10^−3), MTT viability ([2]; absence of Dox. (−))",% Lipid Peroxidation inhibition (at 1 uM) (Lipid peroxidation) [%],"Lipid Peroxidation Inhibition, % Inhibition (Lipid peroxidation; 10 uM) [%]","inhibition at 10 µM (TNFα; THP-1, read-out: Mean Percent Inhibition of TNF-alpha using 5 ng/mL LPS) [%]","IC50 (TNFα; THP-1, read-out: TNFalpha IC50 (uM)) [µM]","Lipid Peroxidation Inhibition, % Inhibition (Lipid peroxidation; 100 uM) [%]"
≥ 100,,"Cc1cc(O)c(O)cc1C(=O)NC1CC(C)(C)N(O)C(C)(C)C1.Cl [Compound 27, 4,5-dihydroxy-2-methyl-N-(1-hydroxy-2,2,6,6-tetramethylpiperidin-4-yl)benzamide hydrogen chloride]",,,,403.75 ×10^−3,1038.33 ×10^−3,53.4,,,,
45.5,,"CC(C)(C)c1cc(NC(=O)C2CC(C)(C)N(O)C(C)(C)C2)cc(C(C)(C)C)c1O.Cl [Compound 29, N-(3,5-di-tert-butyl-4-hydroxyphenyl)-1-hydroxy-2,2,6,6-tetramethylpiperidine-4-carboxamide hydrogen chloride]",,,,105.75 ×10^−3,1328.00 ×10^−3,92.3,,,,
3.8,,"CC1(C)C=CCC(C)(C)N1O.Cl [Compound 35, 1-hydroxy-1,2,3,6-tetrahydro-2,2,6,6-tetramethylpyridine hydrogen chloride]",,,,352.75 ×10^−3,1128.00 ×10^−3,64.4,,,,
≥ 100,,"CCOCC(C)(C)N(O)C(C)(C)COCC [Compound 40, N-Hydroxyl-N,N-bis(1-ethoxy-2-methylpropan-2-yl)amine hydrochloride]",,,,338.75 ×10^−3,1177.25 ×10^−3,46.8,,,,
1,201.7 °C (dec.),"CC1(C)CC(O)(c2ccccc2)CC(C)(C)N1O.Cl [Compound 42, 1,4-Dihydroxy-4-phenyl-2,2,6,6-tetramethylpiperidine hydrochloride]",,,,311.00 ×10^−3,1068.67 ×10^−3,83.8,,,,
≥ 100,181.5 °C (dec.),"CC1(C)CC(OCc2ccccc2)CC(C)(C)N1O.Cl [Compound 43, 4-Benzyloxy-1-hydroxy-2,2,6,6-tetramethylpiperidine hydrochloride]",,,,324.67 ×10^−3,1159.00 ×10^−3,88.5,,,,
30,,"CC1(C)CC(Oc2nsnc2C#N)CC(C)(C)N1O [Compound 45, hydrochloride]",,,,276.50 ×10^−3,1063.33 ×10^−3,91.5,,,,
1,,"COc1ccc(C2=C(c3cc(OC)c(OC)c(OC)c3)C(C)(C)N(O)C2(C)C)cc1C=O.Cl [Compound 46, 5-(2,5,-dihydro-4-(3,4,5-trimethoxyphenyl)-1-hydroxy-2,2,5,5-tetramethyl-1H-pyrrol-3-yl)-2-methoxybenzaldehyde hydrochloride]",,,,32.75 ×10^−3,79.00 ×10^−3,80.1,,,,
≥ 100,220 °C (dec.),"CC1(C)CC(O)(c2ccc(F)cc2)CC(C)(C)N1O.Cl [Compound 57, 4-(4-Fluorophenyl)-1-hydroxyl-2,2,6,6-tetramethylpiperidin-4-ol hydrochloride]",,,,426.25 ×10^−3,1078.50 ×10^−3,,,,,

# — patent publication US20080200405A1, “Drug Resistance Reversal In Neoplastic Disease” (priority 2007, published 2008)
